One test addresses T1, pOBP-mutant-F88W (Sus scrofa, UniProt P81245, F88W).
T1 construct: His6 (N); made in house; host or cells: Escherichia coli BL21(DE3), pET5b vector
T1 sequence (P81245 1-157 F88W): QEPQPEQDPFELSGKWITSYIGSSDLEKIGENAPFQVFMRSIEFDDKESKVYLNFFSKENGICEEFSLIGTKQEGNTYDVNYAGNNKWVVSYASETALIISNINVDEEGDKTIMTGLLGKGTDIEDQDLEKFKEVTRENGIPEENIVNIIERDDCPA
Nature of the test: Competitive fluorescent binding assay of pOBP in solution (1-AMA probe). To be noted: pOBP and 1-AMA probe at 1 μM, 10 mM phosphate buffer pH 7.4, room temperature, calculated from IC50, read-out: dissociation constant KSol. Further details: species or system porcine. Here is the method: Emission fluorescence spectra were recorded using a Perkin Elmer LS55 instrument at room temperature, with a 1 cm light path quartz cuvette and 5 nm slits for both excitation and emission. The affinity of binding of pOBP was measured using the fluorescence probe 1-AMA as previously reported. About 1 μM pOBP-F88W solution in 10 mM phosphate buffer, pH 7.4, was titrated with aliquots of 1 mM 1-AMA in methanol to final concentrations of 0.25–8 μM. The probe was excited at 375 nm and the fluorescence spectra were recorded between 400 to 570 nm, monitoring the signals between 480 and 490 nm. The dissociation constant (K1-AMA) for the OBP/1-AMA complex was calculated using the equation y=(Bmax × x)/(K1-AMA+x), where y is the degree of saturation, Bmax is the number of maximum binding sites, and K1-AMA is the dissociation constant. The calculation was run using the software Sigma Plot and a single binding site was considered for the OBP.
The affinity of pOBP-F88W towards S-(+)-carvone and R-(−)-carvone and 2-phenylethanol was measured in competitive binding assays, using both pOBP and probe at 1 μM as the final concentration. The ligand solutions, with concentrations ranging from 2 to 20 μM, were prepared in 10 mM phosphate buffer pH 7.4 and used for the binding experiments. Dissociation constants of competitors were calculated from the corresponding IC50 values, using the equation: KSol=[IC50]/1+[1-AMA]/K1-AMA, where [1-AMA] is the free concentration of the fluorescence probe and K1-AMA is the dissociation constant of the complex OBP/1-AMA.

In test [1] the target is T2, pOBP-SAM (pOBP-F88W immobilized on gold gate) (Sus scrofa, UniProt P81245, F88W).
T2 construct: His6 (N); made in house; host or cells: Escherichia coli BL21(DE3), pET5b vector
T2 sequence (P81245 1-157 F88W): T1 sequence (P81245 1-157 F88W)
The test is described as follows: WGOFET with pOBP-SAM gate: binding curves from ΔI/I electronic response. Further details: species or system porcine. The settings on record: for α (Hill degree of cooperativity): Hill's isotherm fit of binding curve of Fig. 5b; for Kd: pOBP-SAM gate, fit of ΔI/I binding curve of Fig. 5b; for ΔC/C, fractional change of pOBP-SAM capacitance (measured chiral response): at saturation, extracted from source-drain current (Fig. 8a); for plateau response at saturation (ΔI/I): best-fit parameter of binding curve of Fig. 5b, IDS at VG=−0.5 V; for WGOFET response at saturation: binding curves of Fig. 5b; for maximum fractional decrease of IDS: control experiment of Fig. 6: same pOBP-SAM gate exposed alternately to the two enantiomers, rinsed between exposures. The source says:
where Ci≈COBP is the capacitance per unit area. In Fig. 5a, the pOBP-WGOFET transfer-characteristics (IDS versus VG at VDS=−0.5 V) are reported for a device gated with a pristine pOBP-SAM (baseline, red curve) along with the traces measured after exposing the pOBP-SAM to progressively higher concentrations of (S)-(+)carvone (signal, black curves). Apparently, a significant degree of current decrease can be measured even at very low ligand concentrations. In the Supplementary Fig. 8, the gate leakage currents (IG) for the data of Fig. 5a are reported for comparison. […] From the transfer curve the COBP and μFET product, as well as the VT values are extracted. μFET can be as high as (1.1±0.2) × 10^−1 cm^2 V^−1 s^−1, showing a very good level of performance for the pOBP-SAM WGOFET[37]. The fractional current decrease upon binding was evaluated from the transfer curves as ΔI/I=[(I−I0)I0^−1] with I and I0 being IDS values at VG=−0.5 V for the signal and for the base-line curves, respectively. ΔI/I was taken as the WGOFET electronic response as this normalizes the device-to-device variation in FET biosensors, resulting in high response reproducibility.
The fitting of the (S)-(+)-carvone binding curve (red solid line in Fig. 5b) is performed using Langmuir’s isotherm Y=bMAX(X/(KFET+X)), where Y is the ΔI/I electronic response proportional, through bmax, to the degree of saturation. X is the ligand concentration and KFET is the dissociation constant. The fitting of the (R)-(−)-carvone (magenta solid curve in Fig. 5b) was calculated using Hill’s binding model, also used to model the data relevant to the 2-phenylethanol (blue curve). The Hill’s equation is Y=bMAX(X^α/(KFET+X^α)), with α giving the degree of cooperativity (α=1 for non-cooperative, α>1 and α<1 for positive and negative cooperativity, respectively). The fit of the S-(+)-carvone data to a Langmuir’s non-cooperative binding isotherm[39] returns a dissociation constant KFET^+=0.81±0.05 nM and a plateau response at a saturation of (ΔI/I)^+=0.62±0.01, while the limit-of-detection is 50 pM and the limit-of-quantification is 150 pM. The detection of carvone enantiomers here performed is about 6 orders of magnitude better than the determinations performed with a back-gate device. A comparison between the two systems is not straightforward as they hold different device structures and different recognition elements. However, it is a fact that in the WGOFET a direct interaction between the bio-recognition element layer and an electronic interface, is created. The R-(−)-carvone data could only be accounted for by a Hill’s binding isotherm[38] that, through the α coefficient, models the extent of cooperativity of a given binding site. […] The fitting of the S-(+)-carvone to the Hill’s isotherm, performed as control, returns a KFET=0.4±0.2 nM and an α=1.1±0.1, consistent with the Langmuir’s fit. The errors are taken as 1 s.d., as for all data presented.
PBTTT-C14 was dissolved (7 mg ml^−1) in a mixture of 1,2-dichlorobenzene and chloroform (9:1). Gold source (S) and drain (D) interdigitated electrodes were photo-lithographically defined on a flexible substrate. The distance between two differently biased fingers is the channel length (L), while the perimeter of each set of equipotential fingers is the channel width (W); they are 5 μm and 10^4 μm, respectively. The substrate with patterned electrodes was spin coated with a PBTTT-C14 solution at 7,000 r.p.m. for 60 s and annealed at 120 °C for 10 min. A gold plate with an area of ~3 10^−2 cm^2 served as the gate (G) electrode. The SAM functionalizing protocol[52] involved a 50 mM solution of 3-mercaptopropionic acid (3MPA) in ethanol containing 5% acetic acid. N2 was bubbled through the 3MPA solution for at least 10 min to remove dissolved oxygen. The gold electrodes were immersed into the 3MPA solution and kept in the dark under N2 for 18 h at 22 °C. […]

A further test relates to human. Set-up: method as in earlier work. The settings on record: perceived as spearmint or caraway odours; cited from earlier work.
Setting [2] is: read-out: dissociation constant KFET (Hill's isotherm fit).

Like-named read-outs stand apart in the source and are kept apart here.

As for `OCCc1ccccc1` [2-phenylethanol], the Kd is approximately 40 µM on pOBP-mutant-F88W and 0.7 ± 0.33 µM in test [1] (setting [2]). Moreover, the “α (Hill degree of cooperativity)” value in test [1] amounted to 0.3±0.1.
Take `C=C(C)[C@@H]1CC=C(C)C(=O)C1` [(R)-(−)-carvone]: the Kd on pOBP-mutant-F88W was 1.22 ± 0.05 µM. Moreover, in test [1], the “α (Hill degree of cooperativity)” value came to 0.5±0.1; the “ΔC/C, fractional change of pOBP-SAM capacitance (measured chiral response)” value is −0.17; the “plateau response at saturation (ΔI/I)” value came to 0.17±0.02; the “WGOFET response at saturation” value is on record as less than 20%. The “maximum fractional decrease of IDS” value in test [1] was “much higher response at saturation”. The Kd in test [1] (setting [2]) turned out to be 0.02 ± 0.02 µM. In the test on human, the “human threshold for detection (odour)” value is 30 nM.
For `C=C(C)[C@H]1CC=C(C)C(=O)C1` [(S)-(+)-carvone], the Kd at pOBP-mutant-F88W was 0.5 ± 0.01 µM. In test [1], the “α (Hill degree of cooperativity)” value worked out at 1.1±0.1; the “ΔC/C, fractional change of pOBP-SAM capacitance (measured chiral response)” value is −0.485; the “plateau response at saturation (ΔI/I)” value amounted to 0.62±0.01; the “WGOFET response at saturation” value is more than 60%. The “maximum fractional decrease of IDS” value in test [1] is ~ 60%. In test [1] (pOBP-SAM WGOFET), this molecule yielded a limit-of-detection of 50 pM and a limit-of-quantification of 150 pM. The Kd in test [1] (three devices, read-out: dissociation constant KFET (Langmuir's isotherm fit)) was found to be 0.00081 ± 5e-05 µM. The Kd in test [1] (setting [2]) was found to be 0.0004 ± 0.0002 µM. In addition, the “human threshold for detection (odour)” value in the test on human is on record as 420 nM.
